Measurements from PubChem BioAssay (NCI).
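Values below derive from 48-hour exposures of cells grown in 96-well plates, with endpoints linearly interpolated between the two concentrations bracketing the appropriate inhibition level. TGI: concentration producing complete growth inhibition.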

Key:
Experiment in all cases: NCI-60 cell line screen, 48 h
[1] = system: 786-0 renal
[2] = system: A498 renal
[3] = system: A549 NSCLC
[4] = system: ACHN renal
[5] = system: CCRF-CEM leukemia
[6] = system: COLO 205 colon
[7] = system: DU-145 prostate
[8] = system: EKVX NSCLC
[9] = system: HCC-2998 colon
[10] = system: HCT-15 colon
[11] = system: HL-60(TB) leukemia
[12] = system: HOP-62 NSCLC
[13] = system: HOP-92 NSCLC
[14] = system: HS 578T breast
[15] = system: HT29 colon
[16] = system: K-562 leukemia
[17] = system: KM12 colon
[18] = system: LOX IMVI melanoma
[19] = system: M14 melanoma
[20] = system: MALME-3M melanoma
[21] = system: MCF7 breast
[22] = system: MDA-MB-231 breast
[23] = system: MDA-MB-435
[24] = system: MDA-N
[25] = system: MOLT-4 leukemia
[26] = system: NCI-H226 lung
[27] = system: NCI-H23 lung
[28] = system: NCI-H460 lung
[29] = system: NCI/ADR-RES ovarian
[30] = system: OVCAR-3 ovarian
[31] = system: OVCAR-4 ovarian
[32] = system: OVCAR-5 ovarian
[33] = system: OVCAR-8 ovarian
[34] = system: PC-3 prostate
[35] = system: RPMI-8226 leukemia
[36] = system: SF-268 CNS
[37] = system: SF-295 CNS
[38] = system: SF-539 CNS
[39] = system: SK-MEL-2 melanoma
[40] = system: SK-MEL-28 melanoma
[41] = system: SK-MEL-5 melanoma
[42] = system: SK-OV-3 ovarian
[43] = system: SN12C renal
[44] = system: SNB-19 CNS
[45] = system: SNB-75 CNS
[46] = system: SR leukemia
[47] = system: SW-620 colon
[48] = system: T-47D breast
[49] = system: TK-10 renal
[50] = system: U251 CNS
[51] = system: UACC-257 melanoma
[52] = system: UACC-62 melanoma
[53] = system: UO-31 renal
[54] = system: CAKI-1 renal
[55] = system: HCT-116 colon
[56] = system: IGROV1 ovarian
[57] = system: NCI-H522 lung
[58] = system: RXF 393 renal

`CN(C)c1ccc(/C=C/c2ccnc3ccccc23)cc1N` gave a TGI [1] of 53.5 µM, a TGI [2] of 22.3 µM and a TGI [3] of 32.6 µM. It also gave a TGI [4] of 24.1 µM, a TGI [5] of over 100 µM and a TGI [6] of 19.6 µM. For the same molecule, the TGI [7] was 30.2 µM, the TGI [8] was 22.4 µM and the TGI [9] was 25.3 µM. It also gave a TGI [10] of 22.8 µM, a TGI [11] of 13.9 µM and a TGI [12] of 28.4 µM. For the same molecule, the TGI [13] was 5.87 µM, the TGI [14] was 61.3 µM and the TGI [15] was 17.7 µM. For the same molecule, the TGI [16] was 23.6 µM, the TGI [17] was 65.4 µM and the TGI [18] was 32.6 µM. For the same molecule, the TGI [19] was 25.1 µM, the TGI [20] was 28.8 µM and the TGI [21] was 8.29 µM. The TGI [22] was 20.1 µM, the TGI [23] was 8.06 µM and the TGI [24] was 12 µM. It also gave a TGI [25] of 25.5 µM, a TGI [26] of 36.5 µM and a TGI [27] of 21.8 µM. For the same molecule, the TGI [28] was 22.3 µM, the TGI [29] was 53.9 µM and the TGI [30] was 10.2 µM. It also gave a TGI [31] of 32.9 µM, a TGI [32] of 31.2 µM and a TGI [33] of 22.1 µM. The TGI [34] was 22 µM, the TGI [35] was 15.5 µM and the TGI [36] was 23.2 µM. For the same molecule, the TGI [37] was 27.7 µM, the TGI [38] was 28.8 µM and the TGI [39] was 21.3 µM. The TGI [40] was 26.3 µM, the TGI [41] was 11.5 µM and the TGI [42] was 31.7 µM. The TGI [43] was 34.4 µM, the TGI [44] was 28.5 µM and the TGI [45] was 19.5 µM. It also gave a TGI [46] of 5.87 µM, a TGI [47] of 33.3 µM and a TGI [48] of 5.36 µM. It also gave a TGI [49] of 20.2 µM, a TGI [50] of 40.8 µM and a TGI [51] of 7.75 µM. For the same molecule, the TGI [52] was 25.9 µM and the TGI [53] was 20.2 µM.
`O=c1[nH]c(=O)n(C2OC(CO)C(O)C2O)cc1OCCc1ccccc1` (stereo unspecified) was tested, and the TGI [1] was over 100 µM, the TGI [2] was over 100 µM and the TGI [3] was over 100 µM. For the same molecule, the TGI [4] was over 100 µM, the TGI [54] was over 100 µM and the TGI [5] was over 100 µM. The TGI [6] was over 100 µM, the TGI [7] was over 100 µM and the TGI [8] was over 100 µM. The TGI [9] was over 100 µM, the TGI [55] was over 100 µM and the TGI [10] was over 100 µM. For the same molecule, the TGI [11] was over 100 µM, the TGI [12] was over 100 µM and the TGI [13] was over 100 µM. It also gave a TGI [14] of over 100 µM, a TGI [15] of over 100 µM and a TGI [56] of over 100 µM. The TGI [17] was over 100 µM, the TGI [18] was over 100 µM and the TGI [19] was over 100 µM. The TGI [20] was over 100 µM, the TGI [21] was over 100 µM and the TGI [22] was over 100 µM. It also gave a TGI [23] of over 100 µM, a TGI [24] of over 100 µM and a TGI [25] of over 100 µM. For the same molecule, the TGI [26] was over 100 µM, the TGI [27] was over 100 µM and the TGI [28] was over 100 µM. For the same molecule, the TGI [57] was over 100 µM, the TGI [29] was over 100 µM and the TGI [30] was over 100 µM. The TGI [31] was over 100 µM, the TGI [32] was over 100 µM and the TGI [33] was over 100 µM. For the same molecule, the TGI [34] was over 100 µM, the TGI [58] was over 100 µM and the TGI [36] was over 100 µM. It also gave a TGI [37] of over 100 µM, a TGI [38] of over 100 µM and a TGI [39] of over 100 µM. For the same molecule, the TGI [40] was over 100 µM, the TGI [41] was over 100 µM and the TGI [42] was over 100 µM. It also gave a TGI [43] of over 100 µM, a TGI [44] of over 100 µM and a TGI [46] of over 100 µM. It also gave a TGI [47] of over 100 µM, a TGI [48] of over 100 µM and a TGI [49] of over 100 µM. For the same molecule, the TGI [51] was over 100 µM and the TGI [52] was over 100 µM.
